According to US20260232812A1, “BIFUNCTIONAL MOLECULES FOR TARGETED PROTEIN DEGRADATION” (Amphista Therapeutics Limited, priority 2022, published 2026):

Assays:
Assay type in all cases: cell-based
BRD9 [1] = target: T1, BRD9 (Homo sapiens, UniProt Q9H8M2); experiment: Assay Protocol 1 - Degradation of HiBit-BRD9 in HEK293; conditions: titration up to 10 μM; for Dmax: HEK293, Assay Protocol 1: HiBit-BRD9 in HEK293, 6 h
T1 sequence (Q9H8M2 1-597): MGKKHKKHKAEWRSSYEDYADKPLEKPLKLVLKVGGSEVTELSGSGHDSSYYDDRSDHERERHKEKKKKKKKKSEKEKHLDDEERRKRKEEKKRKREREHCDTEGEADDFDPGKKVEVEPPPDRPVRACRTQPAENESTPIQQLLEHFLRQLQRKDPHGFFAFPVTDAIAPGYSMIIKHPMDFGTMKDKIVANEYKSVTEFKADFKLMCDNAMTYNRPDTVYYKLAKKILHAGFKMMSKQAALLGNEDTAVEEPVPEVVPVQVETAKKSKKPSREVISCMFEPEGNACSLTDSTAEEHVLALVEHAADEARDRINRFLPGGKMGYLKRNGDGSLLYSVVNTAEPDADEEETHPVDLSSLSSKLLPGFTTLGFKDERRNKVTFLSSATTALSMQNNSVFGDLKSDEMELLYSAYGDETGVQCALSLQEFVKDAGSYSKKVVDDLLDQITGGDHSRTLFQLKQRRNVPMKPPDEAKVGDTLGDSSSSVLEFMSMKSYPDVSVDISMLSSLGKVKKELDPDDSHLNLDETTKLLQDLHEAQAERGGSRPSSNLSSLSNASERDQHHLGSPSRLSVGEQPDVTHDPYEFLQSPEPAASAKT
Method: Assay Protocol 1—Degradation of HiBit-BRD9 in HEK293
HEK293 stably expressing LgBit and containing a HiBit insertion for BRD9 were plated in 384-well tissue culture plates at a density of 8×10^3 per well in a volume of 36 μL and incubated overnight at 37° C. and 5% CO2. Wells were treated with test compounds (11 pt titration up to 10 μM) for 6 h prior to addition of Nano-Glo® Hibit Lytic buffer (1:50 substrate and 1:100 LgBit protein) and reading on a PheraSTAR. Degradation data was plotted and analysed using Prism 8 (Graphpad).

BRD9 [2] = target: T1, BRD9; experiment: Assay Protocol 2 - Degradation of BRD9 (IF) in MV4-11 cells; set-up: host or cells: MV4-11; conditions: Assay Protocol 2: BRD9 immunofluorescence, 24 hours
Method: Assay Protocol 2—Degradation of BRD9 (IF)
A suspension of MV4-11 cells (ATCC CRL-9591) was prepared in phenol red-free assay media (IMDM Thermo Scientific 21056023+10% FBS ATCC 302025) and cells were seeded at 20,000 cells per well (45 μL) in sterile black poly-d-lysine coated 384 well plates (Greiner 781948). Compounds were prepared at 1000× final concentration in DMSO, diluted 1:100 in assay media, and 5 μL compound was added to each well of the cell plate. Cells were incubated for 24 hours at 37° C. with 5% CO2. All the following incubations for immunofluorescence staining were at room temperature. 15 μL of 16% PFA was added to each well (3.7% final concentration) and the cells were fixed for 15 min then washed twice with DPBS. Cells were permeabilised with 0.1% Triton X-100 for 10 min, Triton X-100 was removed, then blocked with 1% BSA in DPBS for 1 hour. Cells were stained with 25 μL anti-BRD9 E4Q3F antibody (CST 48306) diluted 1:25600 in 1% BSA in DPBS for 2-3 hours. Wells were washed twice with DPBS then incubated with 25 μL of 1% BSA containing a 1:1000 dilution of Anti-rabbit Alexa Fluor™ 647 secondary antibody (Thermo Scientific A^21244) and 1 μg/mL Hoechst nuclear counter stain (Abcam ab228551) for 1 hour. Wells were washed twice with DPBS prior to imaging on a Perkin Elmer Operetta CLS with 10× air lens. Images were processed using Harmony High-Content Imaging and Analysis Software (Perkin Elmer) and the mean contrast ratio of Alexa Fluor™ 647 in central nuclei was used to quantify BRD9 protein levels. Data was further analysed using Dotmatics software and % BRD9 remaining was calculated by normalisation to average data from high and low control wells (cells treated with DMSO or 100 nM CFT-8634 respectively).

SMARCA2 = target: T2, SMARCA2 (Homo sapiens, UniProt P51531); experiment: SMARCA2 degradation, HeLa SMARCA2 HiBiT cells (Assay Protocol 1); conditions: 24 hours after compound addition
T2 construct: a HiBiT tag knocked in at the 3′ end of SMARCA2; host or cells: HeLa SMARCA2 HiBiT knock-in cells
Method: Hela cells with a HiBiT tag knocked in at the 3′ end of SMARCA2 were purchased from Promega (Custom product) (1). HeLa SMARCA2 HiBiT transfected cells were treated with compounds at indicated concentrations using the FlexDrop IQ (Perkin Elmer). 24 hours after compound additions abundance of HiBiT tagged protein was quantified using NanoGlo HiBiT lytic detection system (Promega, N3050). Cell viability was measured using Cell Titre Glow cell viability assay (Promega, G9243). In each case luminescence was measured on a Pherastar platereader.

[3] = Assay Protocol 1: HiBit-BRD9 in HEK293, 6 h

T2 sequence (P51531 whole entry): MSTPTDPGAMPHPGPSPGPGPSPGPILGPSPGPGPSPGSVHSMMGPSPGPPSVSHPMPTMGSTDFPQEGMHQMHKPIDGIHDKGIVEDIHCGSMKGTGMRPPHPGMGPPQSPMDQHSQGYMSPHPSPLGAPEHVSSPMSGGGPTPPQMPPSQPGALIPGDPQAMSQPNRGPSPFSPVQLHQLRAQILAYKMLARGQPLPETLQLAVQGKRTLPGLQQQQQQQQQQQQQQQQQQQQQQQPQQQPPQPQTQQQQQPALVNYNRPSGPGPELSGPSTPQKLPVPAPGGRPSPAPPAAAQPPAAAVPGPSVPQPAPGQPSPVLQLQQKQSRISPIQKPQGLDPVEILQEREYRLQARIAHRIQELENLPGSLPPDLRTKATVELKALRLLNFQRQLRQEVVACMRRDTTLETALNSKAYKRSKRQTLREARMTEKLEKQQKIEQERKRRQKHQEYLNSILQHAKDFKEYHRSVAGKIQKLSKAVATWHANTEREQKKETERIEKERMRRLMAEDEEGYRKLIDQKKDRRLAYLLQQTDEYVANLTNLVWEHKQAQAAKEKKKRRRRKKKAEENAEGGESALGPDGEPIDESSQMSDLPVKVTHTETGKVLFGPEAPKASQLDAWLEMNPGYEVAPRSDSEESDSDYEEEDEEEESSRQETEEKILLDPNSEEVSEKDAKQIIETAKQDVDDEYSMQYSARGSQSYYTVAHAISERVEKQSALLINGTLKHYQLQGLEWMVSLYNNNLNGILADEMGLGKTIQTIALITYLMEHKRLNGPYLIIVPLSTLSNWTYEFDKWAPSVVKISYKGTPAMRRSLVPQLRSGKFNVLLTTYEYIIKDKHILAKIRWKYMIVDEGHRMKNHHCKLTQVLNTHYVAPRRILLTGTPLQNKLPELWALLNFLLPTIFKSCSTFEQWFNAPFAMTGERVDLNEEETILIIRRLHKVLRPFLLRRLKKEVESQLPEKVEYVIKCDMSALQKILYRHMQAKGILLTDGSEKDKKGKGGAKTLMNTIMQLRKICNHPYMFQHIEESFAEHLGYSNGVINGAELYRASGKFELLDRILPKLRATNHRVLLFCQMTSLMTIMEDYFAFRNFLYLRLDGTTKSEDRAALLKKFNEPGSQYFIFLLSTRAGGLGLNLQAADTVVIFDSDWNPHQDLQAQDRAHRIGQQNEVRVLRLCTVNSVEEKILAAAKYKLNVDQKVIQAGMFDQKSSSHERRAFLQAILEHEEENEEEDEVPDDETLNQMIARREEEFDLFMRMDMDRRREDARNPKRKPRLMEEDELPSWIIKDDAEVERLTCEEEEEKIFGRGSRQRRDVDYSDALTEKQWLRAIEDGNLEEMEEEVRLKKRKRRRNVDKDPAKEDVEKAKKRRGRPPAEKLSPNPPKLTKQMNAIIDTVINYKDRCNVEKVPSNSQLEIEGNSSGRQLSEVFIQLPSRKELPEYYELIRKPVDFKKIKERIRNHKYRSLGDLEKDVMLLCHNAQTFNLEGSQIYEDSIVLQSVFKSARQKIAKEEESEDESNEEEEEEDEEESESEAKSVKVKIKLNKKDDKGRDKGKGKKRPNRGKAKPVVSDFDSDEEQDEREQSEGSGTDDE

| SMILES | DC50 (BRD9 [1]; [3]) [µM] | DC50 (BRD9 [2]) [µM] | Dmax (BRD9 [2]) [%] | Dmax (SMARCA2) [%] | further results |
| --- | --- | --- | --- | --- | --- |
| COc1cc(-c2cn(C)c(=O)c(C)c2C)cc(OC)c1CN(C)C1CCN(C(=O)/C(C#N)=C/C23CC(C2)C3)CC1 (mixture of isomers) [BRD9ae, (E/Z)-3-(bicyclo[1.1.1]pentan-1-yl)-2-(4-((2,6-dimethoxy-4-(1,4,5-trimethyl-6-oxo-1,6-dihydropyridin-3-yl)benzyl)(methyl)amino)piperidine-1-carbonyl)acrylonitrile] | < 0.025 | < 0.025 | ≥ 70 |  | Dmax (BRD9 [1]): ≥ 70% |
| COc1cc(-c2cn(C)c(=O)c(C)c2C)cc(OC)c1CN1CC2CC(C1)N2C(=O)/C(C#N)=C/c1nccs1 (mixture of isomers) [BRD9l, (E/Z)-2-(3-(2,6-dimethoxy-4-(1,4,5-trimethyl-6-oxo-1,6-dihydropyridin-3-yl)benzyl)-3,6-diazabicyclo[3.1.1]heptane-6-carbonyl)-3-(thiazol-2-yl)acrylonitrile] | > 0.2 |  | 30 to 50 |  |  |
| COc1cc(-c2cn(C)c(=O)c(C)c2C)cc(OC)c1CN1C2CC1CN(C(=O)/C(C#N)=C/c1nccs1)C2 (mixture of isomers) [BRD9n, (E/Z)-2-(6-(2,6-dimethoxy-4-(1,4,5-trimethyl-6-oxo-1,6-dihydropyridin-3-yl)benzyl)-3,6-diazabicyclo[3.1.1]heptane-3-carbonyl)-3-(thiazol-2-yl)acrylonitrile] | < 0.025 | < 0.025 | ≥ 70 |  |  |
| COc1cc(-c2cn(C)c(=O)c(C)c2C)cc(OC)c1CN1C2CC1CN(C(=O)/C(C#N)=C/c1cccc(Br)n1)C2 (mixture of isomers) [BRD9o, (E/Z)-3-(6-bromopyridin-2-yl)-2-(6-(2,6-dimethoxy-4-(1,4,5-trimethyl-6-oxo-1,6-dihydropyridin-3-yl)benzyl)-3,6-diazabicyclo[3.1.1]heptane-3-carbonyl)acrylonitrile] | < 0.025 | < 0.025 | ≥ 70 |  |  |
| COc1cc(-c2cn(C)c(=O)c(C)c2C)cc(OC)c1CN1CC2CCC(C1)N2C(=O)/C(C#N)=C/c1nccs1 (mixture of isomers) [BRD9q, (E/Z)-2-(3-(2,6-dimethoxy-4-(1,4,5-trimethyl-6-oxo-1,6-dihydropyridin-3-yl)benzyl)-3,8-diazabicyclo[3.2.1]octane-8-carbonyl)-3-(thiazol-2-yl)acrylonitrile] | > 0.2 | > 0.2 | 50 to 70 |  |  |
| COc1cc(-c2cn(C)c(=O)c(C)c2C)cc(OC)c1CN1CCN(C(=O)/C(C#N)=C/C(C)(C)C)CC1 [BRD9a, (E/Z)-2-(4-(2,6-dimethoxy-4-(1,4,5-trimethyl-6-oxo-1,6-dihydropyridin-3-yl)benzyl)piperazine-1-carbonyl)-4,4-dimethylpent-2-enenitrile] | 0.025 to 0.2 | < 0.025 |  |  |  |
| COc1ccc([C@@H]2CN(C(=O)/C(C#N)=C/c3nccs3)C[C@H]2C(=O)N2CCN(Cc3c(OC)cc(-c4cn(C)c(=O)c(C)c4C)cc3OC)CC2)cc1 [BRD9ah] |  | < 0.025 | ≥ 70 |  | Dmax (BRD9 [1]): 30 to 50% |
| COc1cc(-c2cn(C)c(=O)c(C)c2C)cc(OC)c1CN1CCN(C(=O)[C@@H]2CN(C(=O)/C(C#N)=C/c3nccs3)C[C@H]2c2ccccc2)CC1 [BRD9ai] |  |  | 50 to 70 |  | Dmax (BRD9 [1]): 30 to 50% |
| COc1ccc([C@@H]2CN(C(=O)/C(C#N)=C/c3nccs3)C[C@H]2C(=O)N2CCN(Cc3c(OC)cc(-c4cn(C)c(=O)c(C)c4C)cc3OC)CC2)cc1 [BRD9be] |  | < 0.025 |  |  | Dmax^1 (BRD9 [1]; [3]): ++ (++ = ≥50% and <70%); Dmax^2 (BRD9 [2]): +++ (+++ = ≥70%) |
| COc1cc(-c2cn(C)c(=O)c(C)c2C)cc(OC)c1CN(C)C1CCN(C(=O)/C(C#N)=C/C(C)(C)C)CC1 [BRD9d, (E/Z)-2-(4-((2,6-dimethoxy-4-(1,4,5-trimethyl-6-oxo-1,6-dihydropyridin-3-yl)benzyl)(methyl)amino)piperidine-1-carbonyl)-4,4-dimethylpent-2-enenitrile] | < 0.025 | < 0.025 |  |  |  |
| COc1cc(-c2cn(C)c(=O)c(C)c2C)cc(OC)c1CN1CCC2(CC1)CCN(C(=O)/C(C#N)=C/c1cccc(Br)n1)CC2 [BRD9r, (E/Z)-3-(6-bromopyridin-2-yl)-2-(9-(2,6-dimethoxy-4-(1,4,5-trimethyl-6-oxo-1,6-dihydropyridin-3-yl)benzyl)-3,9-diazaspiro[5.5]undecane-3-carbonyl)acrylonitrile] | < 0.025 | < 0.025 |  |  | Dmax (BRD9 [1]): ≥ 70% |
| COc1cc(-c2cn(C)c(=O)c(C)c2C)cc(OC)c1CN(C)C1CCN(C(=O)/C(C#N)=C/c2cccc(Br)n2)CC1 [BRD9z, (E/Z)-3-(6-bromopyridin-2-yl)-2-(4-((2,6-dimethoxy-4-(1,4,5-trimethyl-6-oxo-1,6-dihydropyridin-3-yl)benzyl)(methyl)amino)piperidine-1-carbonyl)acrylonitrile] | < 0.025 | < 0.025 |  |  | Dmax (BRD9 [1]): ≥ 70% |
| CC(C)(C)/C=C(\C#N)C(=O)N1CCN(CC(=O)N[C@@H]2CCCN(c3cc(-c4ccccc4O)nnc3N)C2)CC1 [SMARCA2b] |  |  |  | 50 to 65 |  |
| CC(C)(C)/C=C(\C#N)C(=O)N1CCN(CC(=O)N2CCc3[nH]c4nnc(-c5ccccc5O)cc4c3C2)CC1 [SMARCA2e] |  |  |  | 50 to 65 |  |
| CC(C)C1CC(C(=O)N[C@@H]2CCCN(c3cc(-c4ccccc4O)nnc3N)C2)CN(C(=O)/C(C#N)=C/C(C)(C)C)C1 (some centres unmarked) [SMARCA2f] |  |  |  | 50 to 65 |  |
| CC(C)C1CC(C(=O)N[C@@H]2CCCN(c3cc(-c4ccccc4O)nnc3N)C2)CN(C(=O)/C(C#N)=C/c2nccs2)C1 (some centres unmarked) [SMARCA2g] |  |  |  | 65 to 80 |  |
| CC(C)(C)/C=C(\C#N)C(=O)N1C[C@@H](C(=O)N[C@@H]2CCCN(c3cc(-c4ccccc4O)nnc3N)C2)[C@H](C2CCCCC2)C1 [SMARCA2h] |  |  |  | 65 to 80 |  |
| COc1ccc(C2CC(C(=O)N[C@@H]3CCCN(c4cc(-c5ccccc5O)nnc4N)C3)CN(C(=O)/C(C#N)=C/c3ccn(C)n3)C2)cc1 (some centres unmarked) [SMARCA2i] |  |  |  | 50 to 65 |  |
| CC(C)[C@@H]1CN(C(=O)/C(C#N)=C/C(C)(C)C)C[C@H]1C(=O)N[C@@H]1CCCN(c2cc(-c3ccccc3O)nnc2N)C1 [SMARCA2j] |  |  |  | 65 to 80 |  |
| N#C/C(=C\c1nccs1)C(=O)N1CCCC(C(=O)N[C@@H]2CCCN(c3cc(-c4ccccc4O)nnc3N)C2)C1 (some centres unmarked) [SMARCA2l] |  |  |  | 50 to 65 |  |
